# Reference: patent US10412963B2, “Agricultural and horticultural fungicide composition and plant disease controlling method” (SDS BIOTECH K.K., priority 2016, dated 2019)
# What was measured:
# [1] = system: Botrytis cinerea; test: Effect test on cucumber gray mold (cucumber cotyledons, paper disc); assay type: in vivo; settings: 20° C., 4 days
# Experimental: Cotyledons were harvested from cucumbers (variety: Hikari No. 3 P-type) that had been grown in a greenhouse for 3 weeks in a plastic pot having a diameter of 6 cm. The harvested cotyledons were placed side by side in a Tupperware container in which wetted filter paper was laid, and a paper disc having a diameter of 8 mm was placed on the center of each of the cotyledons. To each paper disc, 50 μL of a suspension of Botrytis cinerea spores (2×10^4/ml, containing 2% of sucrose and 0.2% of a yeast extract) was added, and at the same time, 50 μL of a phosphate buffer (40 mM, pH 7.2) having dissolved therein each wettable powder prepared in Formulation Example 1 at a target concentration was added. A lid was placed on the Tupperware container, which was kept at 20° C. for 4 days. After that, diseased areas were investigated with eyes to determine a preventive value. The preventive value (%) was calculated using the following equation. Preventive value=(1−(diameter of infection zone in leaf with test compound/diameter of infection zone in control leaf))×100
# [2] = system: cucumber powdery mildew; test: Effect test on cucumber powdery mildew (potted cucumbers, spray); assay type: in vivo; settings: 10 days after inoculation
# Source text: A sufficient amount of a dilute solution of each wettable powder prepared in Formulation Example 1 was spread with a spray gun on cucumbers (variety: Hikari No. 3 P-type) that had been grown in a greenhouse to the third-leaf unfolding stage in a plastic pot having a diameter of 6 cm. The next day, the cucumbers were inoculated with a suspension of cucumber powdery mildew spores by misting. The cucumbers were allowed to stand in the greenhouse for 10 days, and diseased area ratios in the first leaf and the second leaf (first and second leaves from the ground) were investigated with eyes to determine a preventive value. The preventive value (%) was calculated using the following equation. Preventive value=(1−(ratio of infection zone in leaf with test compound/ratio of infection zone in control leaf))×100
Compound,Preventive value (%) ([1]; single chemical 0.5 ppm),Preventive value (%) ([1]; single chemical 1 ppm),Preventive value (%) ([1]; single chemical 2 ppm),Preventive value (%) ([1]; single chemical 5 ppm),Preventive value (%) ([1]; single chemical 10 ppm),Preventive value (%) ([2]; single chemical 0.5 ppm),Preventive value (%) ([2]; single chemical 1 ppm),Preventive value (%) ([2]; single chemical 2 ppm),Preventive value (%) ([2]; single chemical 5 ppm),Preventive value (%) ([2]; single chemical 10 ppm)
"C[C@@H](N)C(=O)N[C@H]1COC(O)[C@H](N)[C@H]1O (stereo partly drawn) [Prumycin, 4-N-D-alanyl-2,4-diamino-2,4-dideoxyarabinose]",6%,45%,55%,95%,100%,7%,21%,44%,69%,95%
iso-C14 [Ile^7]surfactin,,0%,,,0%,,0%,,,0%
surfactin,,0%,,,0%,,0%,,,0%
